Assay results taken from patent publication US7138361B2, “Herbicidal heterocycles” (E. I. du Pont de Nemours and Company, priority 2000, dated 2006).

Experiments:
Type in all cases: in vivo
[1] = tested on: crabgrass (Digitaria sanguinalis); assay: Test B postemergence; conditions: 13 to 15 days
Summary of the method: (§1)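 Post-treatment, species sat 13–15 days under greenhouse conditions before visual scoring against controls, 0 (no effect) through 100 (complete control). Application preemergence to sown seeds or postemergence at 1- to 4-leaf stage, using a non-phytotoxic solvent/surfactant formulation.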

[2] = tested on: cocklebur (Xanthium strumarium); assay: Test B postemergence; conditions: 13 to 15 days
Summary of the method: as §1

[3] = tested on: pigweed (Amaranthus retroflexus); assay: Test B postemergence; conditions: 13 to 15 days
Summary of the method: as §1

[4] = tested on: barnyardgrass (Echinochloa crus-galli); assay: Test B postemergence; conditions: 13 to 15 days
Summary of the method: as §1

[5] = tested on: blackgrass (Alopecurus myosuroides); assay: Test B postemergence; conditions: 13 to 15 days
Summary of the method: as §1

[6] = tested on: morning glory (Ipomoea hederacea); assay: Test B postemergence; conditions: 13 to 15 days
Summary of the method: as §1

[7] = tested on: lambsquarters (Chenopodium album); assay: Test B postemergence; conditions: 13 to 15 days
Summary of the method: as §1

[8] = tested on: wild oat (Avena fatua); assay: Test B postemergence; conditions: 13 to 15 days
Summary of the method: as §1

[9] = tested on: Surinam grass (Brachiaria decumbens); assay: Test B postemergence; conditions: 13 to 15 days
Summary of the method: as §1

[10] = tested on: wheat (Triticum aestivum); assay: Test B postemergence; conditions: 13 to 15 days
Summary of the method: as §1

[11] = tested on: corn (Zea mays); assay: Test B postemergence; conditions: 13 to 15 days
Summary of the method: as §1

[12] = tested on: velvetleaf (Abutilon theophrasti); assay: Test B postemergence; conditions: 13 to 15 days
Summary of the method: as §1

[13] = tested on: giant foxtail (Setaria faberii); assay: Test B postemergence; conditions: 13 to 15 days
Summary of the method: as §1

[14] = tested on: Sunflower; assay: Test C preemergence; conditions: visual evaluation after 12 to 14 days
[15] = tested on: kochia (Kochia scoparia); assay: Test C preemergence; conditions: for Plant response rating (0 to 100), Kochia: visual evaluation after 12 to 14 days
Summary of the method: (§2)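 Compounds in non-phytotoxic solvent with surfactant applied preemergence to planted seeds and postemergence to plants at 1- to 4-leaf stage (2–18 cm). Kept in greenhouse 12–14 days, then visually rated against controls on a 0 (no effect) to 100 (complete control) scale.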

[16] = tested on: morningglory (Ipomoea hederacea); assay: Test C preemergence
Summary of the method: as §2

[17] = tested on: bermudagrass (Cynodon dactylon); assay: Test C preemergence; conditions: for Plant response rating (0 to 100 where 0 is no effect and 100 is complete control), Bermudagrass: visual evaluation after 12 to 14 days
Summary of the method: as §2

[18] = tested on: Sunflower; assay: Test C preemergence
[19] = tested on: johnsongrass (Sorghum halepense); assay: Test C preemergence; conditions: for Plant response rating (0 to 100), Johnsongrass: visual evaluation after 12 to 14 days
Summary of the method: as §2

[20] = tested on: yellow nutsedge (Cyperus esculentus); assay: Test C preemergence; conditions: for Plant response rating (0 to 100), Nutsedge: visual evaluation after 12 to 14 days
Summary of the method: as §2

[21] = tested on: corn (Zea mays); assay: Test C preemergence; conditions: for Plant response rating (0 to 100), Corn: visual evaluation after 12 to 14 days
Summary of the method: as §2

[22] = tested on: velvetleaf (Abutilon theophrasti); assay: Test C preemergence; conditions: for Plant response rating (0 to 100), Velvetleaf: visual evaluation after 12 to 14 days
Summary of the method: as §2

[23] = tested on: giant foxtail (Setaria faberii); assay: Test C preemergence; conditions: for Plant response rating (0 to 100), Foxtail, Giant: visual evaluation after 12 to 14 days
Summary of the method: as §2

[24] = Rate 125 g/ha, scale 0 (no effect) to 100 (complete control)
[25] = Rate 500 g/ha, scale 0 to 100, 0 is no effect, 100 is complete control
[26] = Rate 125 g/ha, scale 0 to 100, 0 no effect, 100 complete control
[27] = preemergence, Rate 62 g/ha, scale 0 to 100
[28] = preemergence, Rate 250 g/ha, scale 0 to 100, 0 no effect, 100 complete control
[29] = Preemergence, Rate 500 g/ha, scale 0 to 100
[30] = Rate 62 g/ha, scale 0 to 100, 0 no effect, 100 complete control
[31] = preemergence, Rate 125 g/ha, scale 0 to 100, 0 no effect, 100 complete control

CSc1cccc(N2CCC(n3ccc(C(C)(C)C)n3)C2=O)c1 (stereo not drawn) [Compound 86]
40: Plant response rating (0 to 100), Johnsongrass ([19]; preemergence, Rate 250 g/ha)
70: Plant response rating, Kochia [15, 27] | Plant response rating (0 to 100), Velvetleaf ([22]; preemergence, Rate 500 g/ha)
90: Plant response rating, Kochia [15, 26] | Plant response rating (0 to 100 where 0 is no effect and 100 is complete control), Bermudagrass ([17]; preemergence, Rate 250 g/ha)
0: Plant response rating, Crabgrass [1, 24] | Plant response rating, Crabgrass [1, 25] | Plant response rating, Cocklebur [2, 24] | Plant response rating, Cocklebur [2, 25] | Plant response rating, Pigweed [3, 24] | Plant response rating, Pigweed [3, 25] | Plant response rating, Barnyardgrass [4, 24] | Plant response rating, Barnyardgrass [4, 25] | Plant response rating, Blackgrass [5, 24] | Plant response rating, Blackgrass [5, 25] | Plant response rating, Morningglory [6, 24] | Plant response rating, Morningglory [6, 25] | Plant response rating, Lambsquarters [7, 24] | Plant response rating, Wild Oat [8, 24] | Plant response rating, Wild Oat [8, 25] | Plant response rating, Surinam grass [9, 24] | Plant response rating, Surinam grass [9, 25] | Plant response rating, Wheat [10, 24] | Plant response rating, Wheat [10, 25] | Plant response rating, Corn [11, 24] | Plant response rating, Corn [11, 25] | Plant response rating, Velvetleaf [12, 24] | Plant response rating, Velvetleaf [12, 25] | Plant response rating, Foxtail, Giant [13, 24] | Plant response rating, Foxtail, Giant [13, 25] | Plant response rating, Morningglory [16, 26] | Plant response rating, Morningglory [16, 27] | Plant response rating, Morningglory [16, 28] | Plant response rating, Nutsedge [20, 26] | Plant response rating, Nutsedge [20, 27] | Plant response rating (0 to 100), Nutsedge ([20]; preemergence, Rate 500 g/ha) | Plant response rating, Nutsedge [20, 28] | Plant response rating, Corn [21, 26] | Plant response rating, Corn [21, 27] | Plant response rating (0 to 100), Corn ([21]; preemergence, Rate 250 g/ha) | Plant response rating, Velvetleaf [22, 26] | Plant response rating, Velvetleaf [22, 27] | Plant response rating, Velvetleaf [22, 28] | Plant response rating, Foxtail, Giant [23, 26] | Plant response rating, Foxtail, Giant [23, 27]
50: Plant response rating, Lambsquarters [7, 25] | Plant response rating (0 to 100), Johnsongrass ([19]; preemergence, Rate 500 g/ha)
20: Plant response rating (0 to 100), Sunflower ([14]; Rate 500 g/ha) | Plant response rating, Sunflower [18, 26] | Plant response rating, Johnsongrass [19, 26] | Plant response rating, Johnsongrass [19, 27]
80: Plant response rating (0 to 100), Foxtail, Giant ([23]; preemergence, Rate 250 g/ha)
100: Plant response rating (0 to 100), Kochia ([15]; preemergence, Rate 250 g/ha) | Plant response rating (0 to 100), Kochia ([15]; preemergence, Rate 500 g/ha) | Plant response rating (0 to 100 where 0 is no effect and 100 is complete control), Bermudagrass ([17]; preemergence, Rate 500 g/ha) | Plant response rating (0 to 100), Foxtail, Giant ([23]; preemergence, Rate 500 g/ha)
30: Plant response rating, Bermudagrass [17, 26] | Plant response rating (0 to 100), Corn ([21]; preemergence, Rate 500 g/ha)
10: Plant response rating, Bermudagrass [17, 27]

CC(C)(C)c1ccn(C2CCN(c3cccc(Br)c3)C2=O)n1 (stereo not drawn) [Compound 33]
70: Plant response rating, Pigweed [3, 24] | Plant response rating, Lambsquarters [7, 24]
100: Plant response rating, Kochia [15, 29] | Plant response rating, Kochia [15, 30] | Plant response rating (0 to 100), Kochia ([15]; preemergence, Rate 250 g/ha) | Plant response rating, Kochia [15, 31] | Plant response rating, Bermudagrass [17, 29] | Plant response rating (0 to 100 where 0 is no effect and 100 is complete control), Bermudagrass ([17]; preemergence, Rate 250 g/ha) | Plant response rating, Bermudagrass [17, 31] | Plant response rating, Johnsongrass [19, 29] | Plant response rating, Foxtail, Giant [23, 31]
40: Plant response rating, Corn [21, 29]
80: Plant response rating, Pigweed [3, 25] | Plant response rating, Lambsquarters [7, 25]
50: Plant response rating, Foxtail, Giant [23, 30]
90: Plant response rating, Bermudagrass [17, 30]
60: Plant response rating, Sunflower ([18]; Rate 500 g/ha, scale 0 to 100)
20: Plant response rating, Foxtail, Giant [13, 25]
10: Plant response rating, Cocklebur [2, 25] | Plant response rating, Morningglory [6, 25]
30: Plant response rating (0 to 100), Sunflower ([14]; Rate 250 g/ha) | Plant response rating, Foxtail, Giant [23, 29]
0: Plant response rating, Crabgrass [1, 24] | Plant response rating, Crabgrass [1, 25] | Plant response rating, Cocklebur [2, 24] | Plant response rating, Barnyardgrass [4, 24] | Plant response rating, Barnyardgrass [4, 25] | Plant response rating, Blackgrass [5, 24] | Plant response rating, Blackgrass [5, 25] | Plant response rating, Morningglory [6, 24] | Plant response rating, Wild Oat [8, 24] | Plant response rating, Wild Oat [8, 25] | Plant response rating, Surinam grass [9, 24] | Plant response rating, Surinam grass [9, 25] | Plant response rating, Wheat [10, 24] | Plant response rating, Wheat [10, 25] | Plant response rating, Corn [11, 24] | Plant response rating, Corn [11, 25] | Plant response rating, Velvetleaf [12, 24] | Plant response rating, Velvetleaf [12, 25] | Plant response rating, Foxtail, Giant [13, 24] | Plant response rating, Morningglory [16, 29] | Plant response rating, Morningglory [16, 30] | Plant response rating (0 to 100), Morningglory ([16]; preemergence, Rate 250 g/ha, visual evaluation after 12 to 14 days) | Plant response rating, Morningglory [16, 31] | Plant response rating, Sunflower [18, 30] | Plant response rating, Johnsongrass [19, 30] | Plant response rating (0 to 100), Johnsongrass ([19]; preemergence, Rate 250 g/ha) | Plant response rating, Johnsongrass [19, 31] | Plant response rating, Nutsedge [20, 29] | Plant response rating, Nutsedge [20, 30] | Plant response rating (0 to 100), Nutsedge ([20]; preemergence, Rate 250 g/ha) | Plant response rating, Nutsedge [20, 31] | Plant response rating, Corn [21, 30] | Plant response rating (0 to 100), Corn ([21]; preemergence, Rate 250 g/ha) | Plant response rating, Corn [21, 31] | Plant response rating, Velvetleaf [22, 29] | Plant response rating, Velvetleaf [22, 30] | Plant response rating (0 to 100), Velvetleaf ([22]; preemergence, Rate 250 g/ha) | Plant response rating, Velvetleaf [22, 31] | Plant response rating (0 to 100), Foxtail, Giant ([23]; preemergence, Rate 250 g/ha)
